Data reported in paper PMC11009648, “Development of an orally bioavailable mSWI/SNF ATPase degrader and acquired mechanisms of resistance in prostate cancer” (Proceedings of the National Academy of Sciences of the …, 2024).

Legend:
[1] = test system: SMARCA4, PBRM1 and SMARCA2 in 22Rv1-AUR-3 xenografts; assay: 22Rv1-AUR-3 xenograft pharmacodynamics study; conditions: 5 d; AU-24118 15 mg/kg oral gavage three times per week; zosuquidar 40 mg/kg i.p.
Procedure: Lysates were prepared using radioimmunoprecipitation assay buffer (Thermo Fisher) with cOmpleteTM protease inhibitor cocktail tablets (Sigma-Aldrich) added. Total protein for each sample was determined using the DC Protein Assay (Bio-Rad) according to the manufacturer’s instructions. A standardized quantity of protein was resolved using NuPAGE Tris-Acetate Protein Gel (3 to 8%) (Thermo Fisher) or NuPAGE Bis-Tris Protein Gel (4 to 12%) (Thermo Fisher) and probed with primary antibodies as indicated. Following incubation with secondary antibodies conjugated with horseradish peroxidase, membranes were imaged on an Odyssey Fc Imager (LiCOR Biosciences).
For the 22Rv1-AUR-3 model, bilateral subcutaneous dorsal flank tumors were established by injecting 1 × 10^6 cells suspended in a 1:1 mixture of serum-free medium and Matrigel (BD Biosciences). Once tumors reached an average volume of 100 mm^3, mice were randomized and treated with either 60 mg/kg AU-15330 by retro-orbital vein injection 3 times every other day and with or without 10 mg/kg, 20 mg/kg, or 40 mg/kg of zosuquidar by intraperitoneal injection daily for 5 d per week. […] Animals harboring tumors approaching that size were immediately killed. All in vivo studies were approved by the U-M IACUC.

[2] = test system: panel of human cancer or normal cell lines; assay: Cell-TiterGlo viability assays in a panel of cell lines; format: cell-based; conditions: 5 d of treatment; sensitive: IC50 < 100 nM, resistant: IC50 > 100 nM
Procedure: Cells were seeded onto 96-well plates in appropriate culture media and allowed to adhere overnight prior to treatment. The next day, a nine-point serial dilution of the compounds was prepared and added to the plates. After treatment, the cells were then incubated for an additional 5 d. On the last day of treatment, the CellTiter-Glo cell viability assay (Promega) was then executed in accordance with the manufacturer’s guidelines. The signal (luminescence) from each well was determined using an Infinite M1000 Pro plate reader (Tecan). Relative viability was determined by dividing the signal from each well by the average of the control condition in each experiment. Finally, the data were analyzed and plotted using GraphPad Prism.

For `Nc1nnc(-c2ccccc2O)cc1-c1ccc(N2CCC(N3CCC(c4ccc(OC5CCC(=O)NC5=O)cc4)CC3)CC2)cc1` (centres unmarked) [AU-24118], the “degradation of target proteins in tumors, immunoblot” value [1] was “mild degradation of its target proteins” and the “cell viability preference across diverse cell lines” value [2] was “notable preference for inhibiting transcription factor–addicted cancer cells”.
